Results reported in patent US6841236B2, “Articles containing thioxanthone dyes” (3M Innovative Properties Co., priority 2001, dated 2005).

How the values were obtained:
[1] = Daytime color of vinyl film with dye laminated to retroreflective sheeting; assay type: physicochemical; conditions: 0.18 g dye in 65 g GEON 178 / Elvacite 2013 mixture, 0.04 mm vinyl film on Scotchlite 3970
Protocol: (§1) The daytime color of each article was measured using a Labsphere BFC-450 Bispectral Colorimeter commercially available from Labsphere, North Sutton, N.H. The daytime chromaticity (x,y), total luminance factor (YT), and fluorescence luminance factor (YF; which is a measure of the fluorescent properties of the article) calculated for the CIE D65 and the CIE 1931 observer are provided in TABLE II
Examples 22-23 were prepared by independently stirring 0.18 g of the dye of Examples 1 and 3 into 65 g of a mixture composed of 42 wt.-% DIBK, xylol, and mineral spirit (1.7:2.3:1), 44 wt.-% of a polyvinyl chloride dispersion commercially available from PolyOne, Cleveland, Ohio under the trade designation “GEON 178” and 14 wt.-% of a polyacrylate commercially available from Ineos Acrylics Inc., Cordova, Tenn. under the trade designation “Elvacite 2013”. Each mixture was allowed to stand at room temperature for one hour prior to knife coating onto a pre-sized paper substrate. Each coated substrate was placed in a 150° F. (66° C.) oven for 1.5 minutes, followed by a 300° F. (149° C.) oven for 1.0 minute and a 400° F. (204° C.) oven for 0.75 minute, resulting in a 0.04 mm thick fluorescent colored vinyl film.
The resultant films were laminated to Scotchlite 3970 reflective sheeting on aluminum panels as described in Examples 8-10. Color values were measured as described in Examples 8-10 and the results set out in TABLE VI.

[2] = Daytime color of copolyester film with dye laminated to retroreflective sheeting; assay type: physicochemical; conditions: dye 0.2 wt.-% in copolyester resin, 0.1 mm film on Scotchlite 3970
Protocol: as §1
Examples 17-18 were prepared as described in Examples 8-10, except that the dyes of Examples 1 and 2 at a 0.2 wt.-% loading were independently incorporated into a copolyester resin. The copolyester resin was prepared using terephthalic and isophthalic acid in an 80/20 ratio and ethylene glycol in the conventional manner and analogous to the production of polyethylene terephthalate according to the method described in Macromolecular Syntheses, A Periodic Publication of Methods for the Preparation of Macromolecules, Collective Volume I, 1977, J. A. Moore, Editor, (John Wiley & Sons, New York; 1978);p. 17-21. The extrusion conditions for the copolyester were 254-260° C. using a single screw extruder and the resultant film thickness was 0.1 mm.
The resultant films were laminated to Scotchlite 3970 reflective sheeting on aluminum panels as described in Examples 8-10. Color values were measured as described in Examples 8-10 and the results set out in TABLE IV.

For `CCCCCCCCOc1cc2c3ccccc3c(=O)c3ccc4c5ccccc5sc1c4c32` [Example 1, 6-n-Octyloxy-14H-anthra(2,1,9mna)thioxanthene-14-one], the “Y (daytime chromaticity)” value [1] was 0.2762, the “YF (fluorescence luminance factor)” value [1] was 12.31 and the “YT (total luminance factor)” value [1] was 23.82. The “x (daytime chromaticity)” value [1] was 0.5149, the “YF (fluorescence luminance factor)” value [2] was 11.70 and the “YT (total luminance factor)” value [2] was 22.83. For the same molecule, the “x (daytime chromaticity)” value [2] was 0.5429 and the “y (daytime chromaticity)” value [2] was 0.3056.
